According to PubChem BioAssay AID234 (DTP/NCI, 2004):
Several values for one entry are separate records, joined by “and”; a condition that tells them apart may be missing. Identical values can stand only once. Inconclusive results are not listed.

System: C3AKF1 mice, hamster liver cystadenocarcinoma s.c., tumor weight T/C
Experiment: NCI In Vivo Anticancer Drug Screen. Data for tumor model Cystadenocarcinoma, Liver (No. 1) (Hamster) (subcutaneous) in C3AKF1 (CHKRF1) mice
Settings: endpoint: mean tumor weight, higher = larger tumour
Protocol: The antitumor activity of compounds was measured in mice bearing transplantable tumors. Survival or tumor size were measured and the results are expressed as the measurement made in the treated group (T) divided by the measurement made in the vehicle treated control group (C). The tumor model used in this assay is Cystadenocarcinoma, Liver (No. 1) (Hamster) (subcutaneous) in C3AKF1 (CHKRF1) mice

[1] = dose: 125.0 mg/kg/injection, schedule: Q01DX010 (ip), vehicle: carboxymethylcellulose (CMC)
[2] = dose: 250.0 mg/kg/injection, schedule: Q01DX010 (ip), vehicle: carboxymethylcellulose (CMC)
[3] = dose: 500.0 mg/kg/injection, schedule: Q01DX010 (ip), vehicle: carboxymethylcellulose (CMC)
[4] = dose: 100.0 mg/kg/injection, schedule: Q01DX010 (ip), vehicle: carboxymethylcellulose (CMC)
[5] = dose: 400.0 mg/kg/injection, schedule: Q01DX010 (ip), vehicle: carboxymethylcellulose (CMC)

With COC(=S)SCN(CSC(=S)OC)c1ccccc1Cl the T/C (dose: 125.0 mg/kg/injection, schedule: Q01DX010 (ip), vehicle: saline) was 99 % of control, the T/C (dose: 250.0 mg/kg/injection, schedule: Q01DX010 (ip), vehicle: saline) was 84 % of control and the T/C (dose: 500.0 mg/kg/injection, schedule: Q01DX010 (ip), vehicle: saline) was 111 % of control.
COC(=O)/C=C\C(=O)O (tested in a mixture with another compound) was tested, and the T/C (dose: 3.5 mg/kg/injection, schedule: Q#A X020 (ip), vehicle: carboxymethylcellulose (CMC)) was 105 % of control, the T/C (dose: 7.5 mg/kg/injection, schedule: Q#A X020 (ip), vehicle: carboxymethylcellulose (CMC)) was 49 % of control and the T/C (dose: 15.0 mg/kg/injection, schedule: Q#A X020 (ip), vehicle: carboxymethylcellulose (CMC)) was 38 % of control.
For COc1ccc2c(c1OC)C(=O)O[C@@H]2[C@H]1c2c(cc3c(c2OC)OCO3)CCN1C, the T/C (dose: 50.0 mg/kg/injection, schedule: Q01DX010 (ip), vehicle: saline) was 102 % of control, the T/C (dose: 100.0 mg/kg/injection, schedule: Q01DX010 (ip), vehicle: saline) was 88 % of control and the T/C (dose: 200.0 mg/kg/injection, schedule: Q01DX010 (ip), vehicle: saline) was 92 % of control.
In the case of CC1(C)N=C(N)N=C(N)N1c1cccc(Br)c1, the T/C (dose: 4.4 mg/kg/injection, schedule: Q01DX010 (ip), vehicle: carboxymethylcellulose (CMC)) is reported as 82 % of control and the T/C (dose: 6.6 mg/kg/injection, schedule: Q01DX010 (ip), vehicle: carboxymethylcellulose (CMC)) is reported as 84 % of control.
With NC(Cc1ccc(N(CCCl)CCCl)cc1)C(=O)O (stereo not drawn) the T/C (dose: 1.0 mg/kg/injection, schedule: Q01DX010 (ip), vehicle: carboxymethylcellulose (CMC)) was 67 % of control, the T/C (dose: 1.25 mg/kg/injection, schedule: Q01DX010 (ip), vehicle: carboxymethylcellulose (CMC)) was 70 % of control and the T/C (dose: 2.0 mg/kg/injection, schedule: Q01DX010 (ip), vehicle: carboxymethylcellulose (CMC)) was 86 % of control. For the same compound, the T/C (dose: 2.5 mg/kg/injection, schedule: Q01DX010 (ip), vehicle: carboxymethylcellulose (CMC)) was 65 % of control, the T/C (dose: 4.0 mg/kg/injection, schedule: Q01DX010 (ip), vehicle: carboxymethylcellulose (CMC)) was 52 % of control and the T/C (dose: 5.0 mg/kg/injection, schedule: Q01DX010 (ip), vehicle: carboxymethylcellulose (CMC)) was 82 % of control.
For Nc1nc(SCc2ccccc2)c2ncn(C3CCCC3)c2n1, the T/C (dose: 62.0 mg/kg/injection, schedule: Q01DX010 (ip), vehicle: carboxymethylcellulose (CMC)) was 120 % of control, the T/C [1] was 98 % of control and the T/C [2] was 91 % of control. The T/C [3] was 81 % of control.
CC(C)(c1ccccc1)c1ccc(O)cc1 was tested, and the T/C (dose: 37.5 mg/kg/injection, schedule: Q01DX010 (ip), vehicle: carboxymethylcellulose (CMC)) was 79 % of control.
With CC1(C)CC(C)(c2ccccc2)c2ccccc21 (stereo not drawn) the T/C (dose: 62.5 mg/kg/injection, schedule: Q01DX010 (ip), vehicle: carboxymethylcellulose (CMC)) was 97 % of control, the T/C [1] was 87 % of control and the T/C [2] was 90 % of control. For the same compound, the T/C [3] was 65 % of control.
For CC1CC(C)OS(=O)O1 (stereo not drawn), the T/C (dose: 44.0 mg/kg/injection, schedule: Q01DX010 (ip), vehicle: saline) was 65 % of control and the T/C (dose: 66.0 mg/kg/injection, schedule: Q01DX010 (ip), vehicle: saline) was 81 % of control.
With CCCn1cnc2c(SCc3ccccc3Cl)nc(N)nc21 the T/C (dose: 25.0 mg/kg/injection, schedule: Q01DX010 (ip), vehicle: carboxymethylcellulose (CMC)) was 88 % of control, the T/C [4] was 90 % of control and 105 % of control and the T/C [5] was 96 % of control.
In the case of CCCC(Sc1nc(N)nc2nc[nH]c12)C(=O)O (stereo not drawn), the T/C (dose: 10.0 mg/kg/injection, schedule: Q01DX010 (ip), vehicle: carboxymethylcellulose (CMC)) is reported as 66 % of control, the T/C (dose: 20.0 mg/kg/injection, schedule: Q01DX010 (ip), vehicle: carboxymethylcellulose (CMC)) is reported as 103 % of control and the T/C (dose: 40.0 mg/kg/injection, schedule: Q01DX010 (ip), vehicle: carboxymethylcellulose (CMC)) is reported as 123 % of control. For the same compound, the T/C (dose: 80.0 mg/kg/injection, schedule: Q01DX010 (ip), vehicle: carboxymethylcellulose (CMC)) was 116 % of control and 118 % of control and the T/C (dose: 160.0 mg/kg/injection, schedule: Q01DX010 (ip), vehicle: carboxymethylcellulose (CMC)) was 76 % of control.
In the case of CC(C)CCSc1nc(N)nc2nc[nH]c12, the T/C (dose: 45.0 mg/kg/injection, schedule: Q01DX010 (ip), vehicle: carboxymethylcellulose (CMC)) is reported as 74 % of control, the T/C (dose: 90.0 mg/kg/injection, schedule: Q01DX010 (ip), vehicle: carboxymethylcellulose (CMC)) is reported as 70 % of control and the T/C (dose: 180.0 mg/kg/injection, schedule: Q01DX010 (ip), vehicle: carboxymethylcellulose (CMC)) is reported as 94 % of control.
In the case of CN(N=O)C(N)=O, the T/C (dose: 3.75 mg/kg/injection, schedule: Q01DX010 (ip), vehicle: carboxymethylcellulose (CMC)) is reported as 95 % of control.
CCn1cnc2c(=S)nc(N)[nH]c21 was tested, and the T/C (dose: 3.0 mg/kg/injection, schedule: Q01DX010 (ip), vehicle: carboxymethylcellulose (CMC)) was 115 % of control, the T/C (dose: 7.0 mg/kg/injection, schedule: Q01DX010 (ip), vehicle: carboxymethylcellulose (CMC)) was 107 % of control and the T/C (dose: 15.0 mg/kg/injection, schedule: Q01DX010 (ip), vehicle: carboxymethylcellulose (CMC)) was 59 % of control and 70 % of control.
ClCCn1cnc2c(SCc3ccccc3)ncnc21 was tested, and the T/C (dose: 50.0 mg/kg/injection, schedule: Q01DX010 (ip), vehicle: carboxymethylcellulose (CMC)) was 75 % of control, the T/C [4] was 84 % of control and 97 % of control and the T/C (dose: 200.0 mg/kg/injection, schedule: Q01DX010 (ip), vehicle: carboxymethylcellulose (CMC)) was 86 % of control and 89 % of control. The T/C [5] was 68 % of control and 80 % of control and the T/C (dose: 600.0 mg/kg/injection, schedule: Q01DX010 (ip), vehicle: carboxymethylcellulose (CMC)) was 73 % of control.
